Data as given in publication PMC9698773, “Design, Synthesis, Molecular Modeling, and Anticancer Evaluation of New VEGFR-2 Inhibitors Based on the Indolin-2-One Scaffold” (Pharmaceuticals, 2022).
Several values for one entry are separate records, joined by “and”; a condition that tells them apart may be missing. Equal entries are not always repeated.

What was measured:
[1] = test system: HepG2 cells; assay: Apoptosis analysis (Annexin V-FITC/PI, flow cytometry); type: cell-based, human; conditions: HepG2, 1.13 µM, 24 h
Protocol: The HepG2 cells were treated with 17a (1.13 µM for 24 h), and the apoptotic effect was determined using Annexin V-FITC/PI assay. […] In addition, 17a enhanced the necrosis percentage 4-fold more than the control.
The apoptotic ability of compound 17a to the HepG2 cells was assessed using Annexin V-FITC/PI dual staining by flow cytometric analysis, as shown in the Supplementary Materials. […]
4.2.3. Cell cycle analysis […]
4.2.4. Apoptosis analysis
Flow cytometry cell apoptosis analysis was used to investigate the apoptotic effect of the synthesized compounds. HepG2 cells were treated with compound 17a (1.13 μM) for 24 h, collected by trypsin, centrifuged, washed two successive times with PBS, suspended in 500 μL binding buffer, and double stained with 5 μL Annexin V‐FITC and 5 μL PI in the dark at room temperature for 15 min. The stained cells were measured using a BD FACSCalibur™ Flow Cytometer and analyzed using Flowing software. […]

[2] = test system: caspase-3; assay: Caspase-3 expression assay (quantitative real-time PCR); type: cell-based, human; conditions: HepG2, 1.13 µM, 24 h; control = 1
Protocol: The gene expression fold change of caspase-3 and -9 in the HepG2 cells treated with 1.13 µM of compound 17a for 24 h was determined using quantitative real-time PCR analysis.
The expression of caspase-3 and -9 in the liver HepG2 cells treated with 1.13 μM of 17a was determined using quantitative real-time PCR analysis, as presented in the Supplementary Materials.
Pharmaceuticals 2022, 15, x FOR PEER REVIEW 3 of 22
Figure S1. Simple linear regression for the correlation between cytotoxicity against HepG2 cell line […]
Figure S2. Simple linear regression for the correlation between cytotoxicity against MCF‐7 cell line […]
4.2.3. Cell cycle analysis
To determine the role of the synthesized compounds in cell cycle distribution, cell cycle analysis was performed using propidium iodide (PI) staining and flow cytometry analysis for compound 17a. […] The stained cells were measured using a BD FACSCalibur™ Flow Cytometer, and the data were analyzed using Flowing software (version 2.5.1, Turku Centre for Biotech‐ […]
Flow cytometry cell apoptosis analysis was used to investigate the apoptotic effect of the synthesized compounds. […] The stained cells were measured using a BD FACSCalibur™ Flow Cytometer and analyzed using Flowing software. […]
The expression of BAX and Bcl‐2 proteins were determined using Western blot anal‐ ysis. […]

[3] = target: VEGFR-2 (Homo sapiens, UniProt P35968); assay: In vitro VEGFR-2 kinase inhibitory assay (VEGFR2 (KDR) Kinase Assay Kit)
Chain of VEGFR-2 (P35968 20-1356): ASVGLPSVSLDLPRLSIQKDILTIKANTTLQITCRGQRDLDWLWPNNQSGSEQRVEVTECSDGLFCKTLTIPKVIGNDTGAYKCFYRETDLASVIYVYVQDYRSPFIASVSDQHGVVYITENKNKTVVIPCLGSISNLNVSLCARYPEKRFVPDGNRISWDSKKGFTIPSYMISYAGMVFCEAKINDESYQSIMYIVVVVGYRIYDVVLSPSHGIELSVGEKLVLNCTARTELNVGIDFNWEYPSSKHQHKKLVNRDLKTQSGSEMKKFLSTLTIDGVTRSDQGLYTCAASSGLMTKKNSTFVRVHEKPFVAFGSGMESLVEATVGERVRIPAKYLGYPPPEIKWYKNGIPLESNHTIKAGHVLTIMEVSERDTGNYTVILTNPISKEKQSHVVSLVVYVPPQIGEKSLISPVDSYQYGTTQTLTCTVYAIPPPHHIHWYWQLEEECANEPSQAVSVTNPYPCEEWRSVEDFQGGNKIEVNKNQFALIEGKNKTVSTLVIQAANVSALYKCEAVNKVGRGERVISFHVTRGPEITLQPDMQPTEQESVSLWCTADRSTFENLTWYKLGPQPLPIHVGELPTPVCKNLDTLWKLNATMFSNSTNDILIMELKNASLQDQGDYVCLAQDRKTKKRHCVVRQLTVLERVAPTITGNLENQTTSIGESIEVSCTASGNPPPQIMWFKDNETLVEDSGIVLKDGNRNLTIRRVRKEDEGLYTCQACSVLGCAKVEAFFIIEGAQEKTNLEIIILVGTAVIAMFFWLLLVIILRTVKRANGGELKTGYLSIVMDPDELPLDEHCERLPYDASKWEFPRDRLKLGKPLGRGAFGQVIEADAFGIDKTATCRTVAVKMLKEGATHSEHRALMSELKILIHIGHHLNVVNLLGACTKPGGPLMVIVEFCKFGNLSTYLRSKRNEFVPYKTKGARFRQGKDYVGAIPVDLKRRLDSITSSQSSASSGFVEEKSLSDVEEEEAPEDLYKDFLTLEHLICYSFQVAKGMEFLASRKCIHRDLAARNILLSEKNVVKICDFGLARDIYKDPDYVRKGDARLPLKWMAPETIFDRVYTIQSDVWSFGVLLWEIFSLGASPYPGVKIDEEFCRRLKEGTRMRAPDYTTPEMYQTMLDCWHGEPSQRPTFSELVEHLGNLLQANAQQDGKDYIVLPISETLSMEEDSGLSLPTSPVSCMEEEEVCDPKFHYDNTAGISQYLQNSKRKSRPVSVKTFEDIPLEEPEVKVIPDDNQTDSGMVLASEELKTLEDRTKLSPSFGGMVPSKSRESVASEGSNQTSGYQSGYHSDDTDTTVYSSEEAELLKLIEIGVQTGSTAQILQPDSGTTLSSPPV
Protocol: In vitro VEGFR‐2 kinase inhibitory assay
for their inhibitory activity against VEGFR‐2. Human BPS bioscience® VEGFR2 (KDR) Ki‐ nase Assay Kit (Enzyme‐Linked Immunosorbent Assay) was utilized in this test. The lu‐ minescent signal from the assay is correlated with the amount of ATP present and is in‐ versely correlated with the amount of kinase activity. The compounds were diluted to 100 μM in 10% DMSO and 5 ml of the diluted solution was added to a 50 ml reaction so that the final concentration of DMSO was 1% in all of reactions. All of the enzymatic reactions were conducted at 30 °C for 40 min. The 50 μl reaction mixture contains 40 μM Tris, pH 7.4, 10 μM MgCl2, 0.1 mg/ml BSA, 0.2 mg/ml Poly (Glu, Tyr) substrate, 10 μM ATP, and VEGFR‐2. After the enzymatic reaction, 50 ml of Kinase‐GloPlus Luminescence kinase as‐ say solution (Promega) was added to each reaction and the plate was incubated for 5 min at room temperature. Luminescence signal was measured using a BioTek Synergy 2 mi‐ croplate reader. The protein kinase assays used to determine IC50 values were performed using a ADP‐GloTM assay kit from Promega, which measures the generation of ADP by the protein kinase. Generation of ADP by the protein kinase reaction leads to an increase in luminescence signal in the presence of the ADP‐GloTM assay kit. The assay was started by incubating the reaction mixture in a 96‐well plate at 30 °C for 30 min. After the 30 mi n incubation period, the assay was terminated by the addition of 25 ml of ADP‐GloTM Re‐ agent (Promega). The 96‐well plate was shaken and then incubated for 40 min at ambient temperature; 50 ml of Kinase detection reagent was added, the 96‐well reaction plate wa s then read using the ADP‐Glo Luminescences Protocol on a GloMax plate reader (Promega: Catalog #E7031). The blank control was set up which included all the assay components, except the addition of appropriate substrates (replaced with equal volume of kinase assay buffer). The corrected activity for each protein kinase target was deter‐ mined by removing the blank control value. IC50 determination for inhibitor against VEGFR‐2 was estimated by generating a graph of log inhibitor vs normalized response with variables.

`O=C1Nc2ccccc2C1=Nc1ccc(C(=O)NNC(=S)Nc2ccccc2)cc1` [Compound 17a, 2-(4-((2-Oxoindolin-3-ylidene)amino)benzoyl)-N-phenylhydrazinecarbothioamide] was tested, and the “Apoptosis Early” value [1] was 33.86%, the “Apoptosis Late” value [1] was 7.99% and the “Apoptosis Total” value [1] was 46.38%. For the same compound, the Necrosis [1] was 4.53%, the “increase of necrosis percentage versus control” value [1] was 4 fold and the “Gene Expression Fold Change (Normalized to β-Actin) Caspases-3” value [2] was 6.88 fold and 6.9 fold and 6.889 fold. The IC50 [3] was 78 ± 3 nM and the “fold more potent than sunitinib, VEGFR-2 inhibition” value ([3]; ratio of IC50 to sunitinib) was 1.78 fold.
